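Test compounds were applied to cells in 96-well plates for 48 hours at 5 doses. Definition used: TGI = concentration required for complete inhibition of growth.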
Experiments:
Assay in all cases: NCI-60 cell line screen, 48 h
CAKI-1 renal = tested on: CAKI-1 renal
HCT-116 colon = tested on: HCT-116 colon
SK-MEL-28 melanoma = tested on: SK-MEL-28 melanoma
786-0 renal = tested on: 786-0 renal
SF-295 CNS = tested on: SF-295 CNS
SK-MEL-2 melanoma = tested on: SK-MEL-2 melanoma
BT-549 breast = tested on: BT-549 breast
MDA-MB-231 breast = tested on: MDA-MB-231 breast
A549 NSCLC = tested on: A549 NSCLC
KM12 colon = tested on: KM12 colon
HOP-62 NSCLC = tested on: HOP-62 NSCLC
SK-MEL-5 melanoma = tested on: SK-MEL-5 melanoma
DU-145 prostate = tested on: DU-145 prostate
UO-31 renal = tested on: UO-31 renal
SK-OV-3 ovarian = tested on: SK-OV-3 ovarian
NCI/ADR-RES ovarian = tested on: NCI/ADR-RES ovarian
SNB-19 CNS = tested on: SNB-19 CNS
SNB-75 CNS = tested on: SNB-75 CNS
OVCAR-4 ovarian = tested on: OVCAR-4 ovarian

| Structure (SMILES) | TGI (CAKI-1 renal) [µM] | TGI (HCT-116 colon) [µM] | TGI (SK-MEL-28 melanoma) [µM] | TGI (786-0 renal) [µM] | TGI (SF-295 CNS) [µM] | TGI (SK-MEL-2 melanoma) [µM] | TGI (BT-549 breast) [µM] | TGI (MDA-MB-231 breast) [µM] | TGI (A549 NSCLC) [µM] | TGI (KM12 colon) [µM] | TGI (HOP-62 NSCLC) [µM] | TGI (SK-MEL-5 melanoma) [µM] | TGI (DU-145 prostate) [µM] | TGI (UO-31 renal) [µM] | TGI (SK-OV-3 ovarian) [µM] | TGI (NCI/ADR-RES ovarian) [µM] | TGI (SNB-19 CNS) [µM] | TGI (SNB-75 CNS) [µM] | TGI (OVCAR-4 ovarian) [µM] |
| --- | --- | --- | --- | --- | --- | --- | --- | --- | --- | --- | --- | --- | --- | --- | --- | --- | --- | --- | --- |
| CCOC(=O)C1=NOC2(C=C(Br)C(=O)C(Br)=C2)C1 | 2.88 | 2.63 | 24.7 | 1.76 | 32.4 | 15 | 17.8 | 21.9 | 59 | 29.7 | 16.2 | 21.7 | 17.8 | 2.51 | 21.1 | > 26.6 | 40 | 33.4 |  |
| CCc1nn(CN2CCOCC2)c(=S)n1/N=C/c1ccc(-c2ccc(Cl)cc2)o1 | > 100 | > 100 | > 100 | > 100 | > 100 | > 100 | > 100 | > 100 | > 100 | > 100 | > 100 | > 100 | > 100 | > 100 |  | > 100 |  | > 100 | > 100 |
| CC(=O)c1ccc2c(c1)CC1(C2)Cc2cc3c(cc2C1=O)CCC3 (stereo unspecified) | 47 | 44 | 48.8 | 63.1 | 49 | 46.2 |  | 49.6 | 59.5 | 32.4 | 81.3 | 22.5 | 61.9 | 63.5 | 96.3 | 39.4 | > 100 | 41.2 | 48 |
| O=C(CCCN1CCC2(CC1)CC(c1ccccc1)OC2=O)c1ccc(F)cc1 (stereo unspecified) | 82.3 | > 100 | > 100 | 67.5 | 60.9 | > 100 |  | > 100 | > 100 | 97.1 | 73.7 | 36.1 | > 100 | > 100 | > 100 | > 100 | > 100 | 54.2 | > 100 |
| CCOC(=O)c1c(C)nc2c1c(CN(C)C)c(O)c1[nH]c(C)c(C)nc12 | > 100 | 42.8 | 76.9 | 49.5 | 62.2 | 43.8 | 76 |  | > 100 | > 100 | 51 | 29.1 | > 100 | > 100 | 92.3 | 76.6 | > 100 | 60.7 | > 100 |
| Cc1ccccc1-n1c(=O)c2ncn(C3CCCO3)c2n(-c2ccccc2C)c1=S (stereo unspecified) | > 100 | > 100 |  | > 100 | > 100 | > 100 | > 100 | > 100 | > 100 | > 100 | > 100 | > 100 | > 100 | > 100 | > 100 | > 100 | > 100 | > 100 |  |
